Data taken from US20230046078A1, “METHODS OF USING SUBSTITUTED FLAVONES FOR TREATING BONE DISORDERS” (EMORY UNIVERSITY, priority 2021, published 2023).
“Also recorded” adds a separate entry of the source.

Tests used:
MC3T3-E1 cells [1] = format: cell-based, Murine
AEP = AEP activity assay on MC3T3-E1 cell lysates; format: cell-based, Murine
Procedure: Cell lysates (10 μg) were incubated in 200 μl assay buffer (20 mM citric acid, 60 mM Na2HPO4, 1 mM EDTA, 0.1% CHAPS, and 1 mM DTT, pH 6.0) containing 20 μM δ-secretase substrate Z-Ala-Ala-Asn-AMC (Bachem, Bubendorf, Switzerland). AMC released by substrate cleavage was quantified by measuring at 460 nm in a fluorescence plate reader at 37° C. for 2 h in kinetic mode.

MC3T3-E1 cells [2] = format: cell-based, Murine; remark: listed apart in the source
Procedure: Total RNA was isolated by TRIzol (Life Technologies, Carlsbad, Calif.). Reverse transcription was performed with SuperScript III reverse transcriptase (Life Technologies). Gene-specific primers and probes were designed and bought from Taqman (Life Technologies). All real-time PCR reactions were performed using the ABI 7500-Fast Real-Time PCR System and the Taqman Universal Master Mix Kit (Life Technologies). The relative quantification of gene expression was calculated using the ΔΔCt method. Predesigned real-time PCR primers from Applied Biosystems (Waltham, Mass.) were used for the analysis of Opg (Tnfrsf11b; Mm0043545_m1), RANK-L (Tnfsf11; Mm00441908_m1), AEP (Lgmn; Mm01325350_m1), GAPDH (Gapdh; Mm99999915_g1).

MC3T3-E1 cells [3] = assay: ELISA of OPG and RANK-L secreted into the medium of MC3T3 cells; format: cell-based, Murine
Text: FIG. 9, Panel A contains representative images of ALP staining in […] cells treated with BDNF or 7,8-DHF combined with or without K252a for 14 days (n=3 independent experiments) (Scale bar, 5 mm (upper panel), 200 μm (lower panel)). […] FIG. 9, Panel C contains Western blots for MC3T3 cells cultured in complete medium or osteogenic induction medium (OIM) with BDNF or 7,8 DHF combined with or without K252a for 4 days. […] FIG. 9, Panel D contains graphs of the relative protein levels of C/EBPP, p-C/EBPβ, AEP, RANK-L, OPG, Osterix, p-TrkB/TrkB and p-Akt/AKT in MC3T3 cells cultured in the complete medium or OIM with BDNF or 7,8-DHF combined with or without K252a for four days. Data are shown as mean±SEM of three independent experiments, one-way ANOVA. Data are shown in each graph from left to right as 1) Control, 2) OIM+DMSO, 3) OIM+BDNF, 4) OIM+7,8-DHF, 5) OIM+BDNF+K252a, and 6) OIM+7,8-DHF+K252a. FIG. 9, Panel E contains graphs of an AEP enzymatic activity assay. BDNF and 7,8-DHF inhibit AEP activities, and K252a abolish BDNF and 7,8-DHF's effects. Data are shown as mean±SEM of 3 independent experiments, one-way ANOVA. Data are shown in each graph from left to right as 1) Control, 2) OIM+DMSO, 3) OIM+BDNF, 4) OIM+7,8-DHF, 5) OIM+BDNF+K252a, and 6) OIM+7,8-DHF+K252a. FIG. 9, Panel F contains graphs of qPCR results showing that OPG mRNA expression increases in MC3T3 cells after 7,8-DHF treatment for four days. Data are shown as mean±SEM of three independent experiments, one-way ANOVA. Data are shown in each graph from left to right as 1) Control, 2) OIM+DMSO, 3) OIM+BDNF, 4) OIM+7,8-DHF, 5) OIM+BDNF+K252a, and 6) OIM+7,8-DHF+K252a. FIG. 9, Panel G contains graphs showing that 7,8-DHF increases OPG and decreases the RANK-L/OPG ratio. Levels of OPG and RANK-L proteins secreted into the medium were measured by ELISA. Data are shown as mean±SEM of 3 independent experiments, one-way ANOVA. Data are shown in each graph from left to right as 1) Control, 2) OIM+DMSO, 3) OIM+BDNF, 4) OIM+7,8-DHF, 5) OIM+BDNF+K252a, and 6) OIM+7,8-DHF+K252a.

[4] = tested on: ovariectomized (OVX) WT and BDNF+/− mice; format: in vivo
[5] = tested on: ovariectomized (OVX) WT and BDNF+/− mice; format: in vivo; remark: listed apart in the source
[6] = tested on: ovariectomized (OVX) WT and BDNF+/− mice; assay: H&E, TRAP staining and quantitative bone histomorphometry of distal femur in OVX WT and BDNF+/− mice treated with R13; format: in vivo
Procedure: (§1) Female C57BL6/J wild-type mice and BDNF+/−mice were obtained from Jackson Laboratory (MMRRC stock #000664 and 002267), then held and bred. The AEP knockout mice were generated on a mixed C57BL/6 and 129/Ola background. All in vivo experiments were carried out in female mice. All mice were kept under specific pathogen-free conditions in an environmentally controlled clean room and housed at 22° C. on a 12-h/12-h light/dark cycle. Food and water were provided ad lib. WT, BDNF+/−mice, AEP WT and AEP knockout mice were bilaterally ovariectomized or sham operated at 12 weeks of age. One week after ovariectomy, the WT and BDNF+/−mice received vehicle or R13 dissolved in 5% DMSO/0.5% methylcellulose at dose of 21.8 mg/kg/d, six days per week, for 8 weeks by gavage. In another group, 4 weeks after ovariectomy, WT mice were treated with IgG or anti-RANK-L monoclonal antibody (10 mg/kg, twice per week) by single subcutaneous injection for 4 weeks.
(§2) The measurements, indices and units for histomorphometric analysis were recommended by the Nomenclature Committee of the American Society of Bone and Mineral Research. Mice were injected with calcein (25 μg/g) subcutaneously at day 10 and day 3 before sacrifice. Bone histomorphometric analysis was performed at the University of Alabama at Birmingham Center for Metabolic Bone Disease-Histomorphometry and Molecular Analysis Core Laboratory. The Goldner's trichrome-stained plastic-embedded sections of calcein-double labeled femora of the mice were analyzed by an operator blinded as to the nature of the samples.
To further explore the roles of BDNF signaling in bone resorption and formation after OVX, hematoxylin and eosin (H&E) staining was conducted to analyze bone morphology and white edipocytes in both WT and BDNF+/−mice after OVX surgery. […] These observations were also validated by the single and double-labeled surface and inter-label thickness analysis (FIG. 7). […] Treatments with R13 inhibited N.Oc/BS in both WT and BDNF+/−mice after OVX.

WT mice = conditions: mouse, in vivo
[7] = tested on: ovariectomized (OVX) WT mice; assay: Serum markers in OVX WT mice, R13 versus anti-RANK-L antibody; format: in vivo
Procedure: as §1
Serum Osteocalcin (Novus Biologicals, Littleton, Colo., Cat. NBP2-68151), CTX (Immunodiagnostic systems, East Boldon, UK, Cat. AC-06F1), RANK-L and OPG (Abcam, Cat. ab269553 and ab203365) were measured by specific Elisa assays.
Given that R13 protects the bone by increase OPG, the RANK-L antibody was used as a comparator drug. Four weeks after ovariectomy, WT mice were treated with IgG or anti-RANK-L monoclonal antibody consecutively for 4 weeks.

[8] = tested on: ovariectomized (OVX) WT mice; assay: H&E, TRAP staining and histomorphometry of distal femur in OVX WT mice, R13 versus anti-RANK-L antibody; format: in vivo; conditions: WT mice after OVX
Procedure: as §1, §2
Representative data of double labeling of the trabecular bone in WT mice with OVX after R13 or anti-RANK-L antibody treatment are provided in FIG. 14, Panel C.

[9] = OVX mice, R13 21.8 mg/kg orally, eight weeks, vs vehicle control
[10] = […], R13 21.8 mg/kg orally, eight weeks, compared to OVX group
[11] = OVX WT and BDNF+/− mice upon R13 treatment
[12] = among the groups regardless of the treatment

BDNF: Brain-derived neurotrophic factor, a neurotrophin; TrkB ligand
AEP expression (MC3T3-E1 cells [1]; OIM, 4 days): diminished | OPG protein (Western blot) (MC3T3-E1 cells [1]; OIM, 4 days): augmentation | RANK-L protein (Western blot) (MC3T3-E1 cells [1]; OIM, 4 days): augmentation | AEP protease activities (AEP; MC3T3 cells in OIM, substrate Z-Ala-Ala-Asn-AMC): greatly blocked; also recorded: inhibit | OPG mRNA levels (MC3T3-E1 cells [2]; OIM, four days): strong stimulatory effect | RANK-L mRNA (MC3T3-E1 cells [2]; OIM, four days): elevated | OPG protein secreted into the medium (MC3T3-E1 cells [3]; OIM, vs OIM alone): further augmented | RANK-L protein secreted into the medium (MC3T3-E1 cells [3]; OIM, vs OIM alone): further augmented | RANK-L/OPG ratio (ELISA) (MC3T3-E1 cells [3]; OIM, vs OIM alone): OIM alone were significantly higher than BDNF and 7,8-DHF

COC(=O)[C@@]1(O)C[C@H]2O[C@]1(C)n1c3ccccc3c3c4c(c5c6ccccc6n2c5c31)C(=O)NC4 [K252a]
effects triggered by BDNF or 7,8-DHF (Western blot) under K252a (MC3T3-E1 cells [1]; K252a 100 nM pretreatment): potently blunted | BDNF and 7,8-DHF's effects on AEP activities under K252a (AEP; K252a 100 nM pretreatment): abolish | BDNF/7,8-DHF-elevated RANK-L mRNAs under K252a (MC3T3-E1 cells [2]; K252a 100 nM pretreatment): not affected | BDNF/7,8-DHF-promoted OPG mRNA levels under K252a (MC3T3-E1 cells [2]; K252a 100 nM pretreatment): abolished | RANK-L/OPG ratio in BDNF and 7,8-DHF groups under K252a (MC3T3-E1 cells [3]; K252a 100 nM pretreatment): highly augmented

CNC(=O)Oc1ccc2c(=O)cc(-c3ccccc3)oc2c1OC(=O)NC [R13, 4-oxo-2-phenyl-4H-chromene-7,8-diyl bis(methylcarbamate)]
trabecular spacing (Tb.Sp) ([4]; OVX mice, both types, R13 21.8 mg/kg orally, eight weeks, vs OVX group): decreased | trabecular number (Tb.N) [4, 9]: higher | trabecular thickness (Tb.Th) [4, 9]: higher | connectivity density (Conn.D) [4, 10]: higher | structure model index (SMI) [4, 10]: lower | trabecular bone volume fraction (BV/TV) ([4]; […], R13 21.8 mg/kg orally, six days per week for eight weeks, compared to OVX group): higher | bone density ([4]; after OVX, overall conclusion): strongly increase | relative cortical bone area to tissue area (Ct.Ar/Tt.Ar) ([4]; among the groups, R13 21.8 mg/kg orally): remained unchanged | average cortical thickness (Ct.Th) ([4]; mouse, in vivo, po, 21.8 mg/kg): escalated | cortical bone cortical area (Ct.Ar) ([4]; mouse, in vivo, po, 21.8 mg/kg): escalated | RANK-L/OPG ratio (serum) [5, 11]: significant reduction | serum OPG [5, 11]: substantially increased | serum CTX levels ([5]; R13-treated OVX mice compared to sham group): higher | serum osteocalcin ([5]; R13-treated OVX mice compared with vehicle-treated sham group): increased | serum BDNF levels ([5]; among the groups): remained equivalent | OVX-induced bone loss ([6]; R13 treatment): attenuated; also recorded: greatly blocks | OVX-induced osteoclast cells (TRAP staining) ([6]; WT and BDNF+/− mice): diminished | N.Oc/BS ([6]; WT and BDNF+/− mice after OVX): inhibited | adipocyte content in the bone (H&E staining) ([6]; after OVX, WT and BDNF+/− mice): decreased | trabecular bone tissue (H&E staining) ([6]; after OVX, WT and BDNF+/− mice): increased | bone formation rate (BFR) ([6]; after OVX, vehicle vs R13): vehicle-treated mice exhibited lower MAR and BFR as compared to R13-treated mice | mineral apposition rate (MAR) ([6]; after OVX, vehicle vs R13): vehicle-treated mice exhibited lower MAR and BFR as compared to R13-treated mice | MS/BS ratio [6, 12]: remained comparable | percentage of surfaces covered by OCs (Oc.S/BS) [6, 12]: remained comparable | N.Ob/BS ([6]; vehicle and R13-treated mice): no significant differences | ObS/BS ([6]; vehicle and R13-treated mice): no significant differences | BV/TV (WT mice): elevated | Conn.D. (WT mice): no significant difference | Ct.Ar (WT mice): no significant difference | Ct.Th (WT mice): no significant difference | SMI (WT mice): no significant difference | Tb.N (WT mice): no significant difference | Tb.Sp (WT mice): no significant difference | Tb.Th (WT mice): no significant difference | serum BDNF (WT mice): no significant difference | serum CTX (WT mice): no significant difference | serum OPG level (WT mice): significantly increased | serum RANK-L (WT mice): without affecting; also recorded: no significant difference | serum RANK-L/OPG ratio (WT mice): no significant difference | serum osteocalcin (WT mice): no significant difference | serum OPG [7]: robustly elevated | serum RANK-L [7]: without altering | serum RANK-L/OPG ratio [7]: significant reduction | OVX-induced osteoclast cells (TRAP staining) [8]: diminished | trabecular bone marrow density (H&E staining) [8]: increased | white adipocyte contents in the bone (H&E staining) [8]: decreased | BFR/BS ([8]; distal femur trabecular bone): significantly increased | N.Oc/BS ([8]; distal femur trabecular bone): decreased
